Data on 49 compounds can be found in patent US20190015423A1, “REGULATION OF GENE EXPRESSION BY MODULATING PRIMARY CILIA LENGTH” (THE TRUSTEES OF COLUMBIA UNIVERSITY IN THE CITY OF NEW YORK, priority 2016, published 2019).

Counter-ions that a name gives are not always drawn. Like-named read-outs stand apart in the source and are kept apart here.

This assay concerns MLO-Y4 osteocytes. In words: High-throughput drug screening of primary cilia length and incidence. The assay is classed as cell-based. How it is done:
MLO-Y4 osteocytes were maintained on collagen I-coated dishes in MEMα (Life_Technologies) supplemented with 5% fetal bovine serum (FBS), 5% calf serum (CS), and 1% penicillin/streptomycin (P/S) at 37° C. and 5% CO2. Osteocytes were then seeded onto 384-well collagen-coated plates for 72 hours before fixation. […] These libraries include Tocris, Sigma LOPAC, Selleck Chemical, Prestwick, and Spectrum commercially available compound libraries. All cell seeding and plate handling was performed with the Perkin Elmer cell:explorer workstation.
Cells were fixed in 4% paraformaldehyde and permeabilized with 0.1% Triton-X 100 (Sigma). 10% goat serum (vendor) was used for blocking. Cilia were stained using a monoclonal antibody against acetylated α-tubulin (1:20) from a C3B9 hybridoma cell line, and visualized with A F488 (1:1000, ThermoFisher). Nuclei were visualized with Hoechst. Cells were imaged using a GE INCell 2000 high-throughput imager at 40× magnification. 4 fields of view were taken per well.
Each pair of nuclei and cilia images was first analyzed individually, then the entire population was examined to evaluate each compound's effect on cilia length and incidence. A custom MATLAB script was developed to perform all image analysis. This script first utilizes an enhanced implementation of a watershed transform, which is a segmentation tool which enables detection of similarly shaped overlapping particles in noisy images by the procedural whittling down of pixels found close to the edge of such particles. The augmentation of the algorithm incorporates thresholding for noise removal based on signal intensity and object size, nuclei dilation to exclude non-cellular artifacts, as well as skeletonization of cilia to quantify length. The results of the analysis are number of nuclei, number of cilia, and average cilia length in each image.
Compounds were selected based on deviation from the population mean. Each well was normalized to vehicle control images on each plate, allowing the establishment of a normalized population mean. Hits were chosen based on compounds whose triplicate mean was furthest (based on standard deviation away) from the population mean. […] Compounds were classified based on mechanism of action.
To identify compounds that modulate primary cilia formation a high-throughput platform was developed to automate cell culture, staining, imaging, and analysis, as shown in schematic form in FIG. 18. […] Cells were cultured on 384-well plates, and treated with small molecules with known biologic activity, enabling classification of mechanisms of action. Drug treatment was applied for 16 hours at 10 μM concentration, performed in triplicate, before fixation and immunostaining of primary cilia. Cells were then imaged using the GE INCell 2000 High Content Analyzer, capturing 4 fields of view per well at 40× magnification. Additionally, each plate contains 8 wells of DMSO vehicle control.
A MATLAB script was developed to detect and analyze changes in ciliogenesis. […] A representative exemplary image (FIG. 19A) is cropped to better display features, scale bar represents 30 μm. A custom MATLAB script was used to identify nuclei and cilia for analysis (FIG. 19B). […] Objects are further filtered based on size and signal intensity.
Cilia length and incidence for each field of view were normalized to vehicle control on that individual plate. This allowed development of a normalized population average and standard deviation. […] To control for toxic effects only small molecules with at least 40% viability, based on number of nuclei versus control, were selected as hits. Furthermore, compounds repeated between multiple libraries eliciting the same effect on cilia length or incidence were excluded, such that only one of the repeated compounds was selected as a hit.

Setting [1] is: 10 μM, 16 hours, triplicate, normalized to vehicle control, standard deviation away from the population average.

For the compound `CC1(C)C(=O)C=C[C@]2(C)[C@H]3CC[C@@]4(C)[C@H](c5ccoc5)OC(=O)[C@H]5O[C@]54[C@]3(C)C(=O)C[C@@H]12` [DEACETOXY-7-OXOGEDUNIN], under setting [1], the “Average Length SD Away” value came out at 1.843 SD.
Turning to `CN/C(=N/CCSCc1nc[nH]c1C)NC#N` [Cimetidine (Tagamet), Cimetidine], the “Average Incidence SD Away” value under setting [1] stood at 1.562 SD.
In the case of `C=CCN1C[C@H](C)N([C@H](c2ccc(C(=O)N(CC)CC)cc2)c2cccc(O)c2)C[C@H]1C` [BW 373U86], the “Average Length SD Away” value under setting [1] came out at 1.553 SD.
Still for that read-out and setting: under `CC1C(=O)OC2C(O)C34C5CC(C(C)(C)C)C36C(OC(=O)C6O)OC4(C(=O)O5)C12O` (centres unmarked) [Ginkgolide B] stands 1.581 SD.
As to `CN1C(=O)COc2c(C(=O)NC3CN4CCC3CC4)cc(Cl)cc21` (centres unmarked) [Azasetron HCl], the “Average Incidence SD Away” value under setting [1] came out at 1.653 SD.
Regarding `O=C1C=C2C=C[C@@H]3C[C@@]2(O1)[C@H]1CCCCN31` [SECURININE], under setting [1], the “Average Length SD Away” value was found to be 1.502 SD.
Consider `CN(Cc1cc(Br)cc(Br)c1N)C1CCCCC1` [Bromhexine HCl], for which, under setting [1], the “Average Incidence SD Away” value was found to be 1.882 SD and the “Average Length SD Away” value was 1.547 SD.
`CC(=O)Nc1ccccc1` [Acetanilide (Antifebrin), Acetanilide]: the “Average Incidence SD Away” value under setting [1] worked out at 1.696 SD.
Same read-out and setting: under `CC(C)C(=O)Nc1ccc([N+](=O)[O-])c(C(F)(F)F)c1` [Flutamide (Eulexin), Flutamide] stands 2.035 SD; under `COc1ccc(C(=O)CC(=O)c2ccc(C(C)(C)C)cc2)cc1` [Avobenzone (Parsol 1789), Avobenzone], 1.502 SD.
The same measure, in the same setting: under `CC(NC(C)(C)C)C(=O)c1cccc(Cl)c1` (centres unmarked) [Amfebutamone (Bupropion), Amfebutamone] stands 1.605 SD; under `OCCN(CCO)c1nc(N2CCCCC2)c2nc(N(CCO)CCO)nc(N3CCCCC3)c2n1` [Dipyridamole (Persantine), Dipyridamole], 2.055 SD.
As for (S)-(+)-Niguldipine hydrochloride, the “Average Length SD Away” value came out at 2.267 SD.
`N#CC(c1ccc(Cl)cc1)c1c(Cl)cc(-n2ncc(=O)[nH]c2=O)cc1Cl` (centres unmarked) [Diclazuril]: the “Average Incidence SD Away” value under setting [1] stood at 1.668 SD.
Regarding `Cn1c(=O)c2[nH]cnc2n(C)c1=O.Cn1c(=O)c2[nH]cnc2n(C)c1=O.NCCN` [Aminophylline ethylenediamine], the “Average Incidence SD Away” value under setting [1] is reported as 2.59 SD.
On the same count and under the same terms, under `C[N+]1(C)[C@@H]2C[C@@H](OC(=O)C(O)(c3cccs3)c3cccs3)C[C@H]1[C@@H]1O[C@@H]12` [Tiotropium Bromide hydrate] stands 1.593 SD.
In the case of `CC(=O)O[C@@]12CO[C@@H]1C[C@H](O)[C@@]1(C)C(=O)[C@H](O)C3=C(C)[C@@H](OC(=O)[C@H](O)[C@@H](NC(=O)OC(C)(C)C)c4ccccc4)C[C@@](O)([C@@H](OC(=O)c4ccccc4)[C@H]21)C3(C)C` [Docetaxel], the “Average Length SD Away” value under setting [1] worked out at 3.416 SD.
Still for that read-out and setting: under `Nc1nccc(-c2ccc3noc(-c4ccc(Cl)cc4)c3c2)n1` [PIM 1 Inhibitor 2] stands 3.223 SD; under `C[C@@H](NC(=O)/C(C#N)=C/c1ccc(O)c(O)c1)c1ccccc1` (single isomer, unassigned) [Tyrphostin B44 (−) enantiomer], 1.877 SD.
With `C#CCC(Cc1cnc2nc(N)nc(N)c2n1)c1ccc(C(=O)N[C@@H](CCC(=O)O)C(=O)O)cc1` (some centres unmarked) [Pralatrexate(Folotyn), Pralatrexate], under setting [1], the “Average Incidence SD Away” value amounted to 2.193 SD and the “Average Length SD Away” value was 2.105 SD.
On to `CCCOc1ccc(C(=O)OCCN(CC)CC)cc1N` [Proparacaine HCl], for which, under setting [1], the “Average Incidence SD Away” value turned out to be 1.523 SD.
As to `C[C@]12CC[C@@H]3c4ccc(O)cc4CC[C@H]3[C@@H]1CC[C@@H]2OC(=O)CCC1CCCC1` [ESTRADIOL CYPIONATE], the “Average Length SD Away” value under setting [1] was 1.56 SD.
The same measure, in the same setting: under `Nc1nc(N)c2nc(-c3ccccc3)c(N)nc2n1` [Triamterene] stands 2.775 SD.
The same measure, in the same setting: for `CC(C)(C)NCC(O)c1ccccc1Cl` (centres unmarked) [TULOBUTEROL] the value was 2.06 SD; for `C[C@H](CCC(=O)O)[C@H]1CC[C@H]2[C@@H]3C(=O)C[C@@H]4CC(=O)CC[C@]4(C)[C@H]3CC(=O)[C@]12C` [DEHYDROCHOLIC ACID], 1.611 SD.
As for `Fc1ccc(-c2nc3n(c2-c2ccncc2)CCS3)cc1` [SKF 86002 dihydrochloride], the “Average Length SD Away” value under setting [1] came to 1.549 SD.
Consider `COc1cc(/C=C/C(=O)N2CCC=CC2=O)cc(OC)c1OC` [Piperlongumine], for which, under setting [1], the “Average Length SD Away” value was 3.198 SD.
As for `CCCc1cc(=O)[nH]c(=S)[nH]1` [Propylthiouracil], the “Average Incidence SD Away” value under setting [1] is 1.659 SD.
With `O=C(O)/C=C/c1ccc(Cn2ccnc2)cc1` [Ozagrel HCl], the “Average Incidence SD Away” value under setting [1] worked out at 1.683 SD.
Same read-out and setting: under `NC(=O)c1ncn([C@@H]2O[C@H](CO)[C@@H](O)[C@H]2O)c1N` [Acadesine] stands 1.847 SD.
Turning to `O.c1cnc2c(c1)ccc1cccnc12` [110-Phenanthroline monohydrate], under setting [1], the “Average Length SD Away” value was determined as 1.838 SD.
Same read-out and setting: for `C[S+]([O-])c1ccc(-c2nc(-c3ccc(F)cc3)c(-c3ccncc3)[nH]2)cc1` (centres unmarked) [SB 203580] the value was 1.797 SD.
The same measure, in the same setting: for `N=C1C=CC(=C(c2ccc(N)cc2)c2ccc(N)cc2)C=C1` [PARAROSANILINE PAMOATE] the value was 2.389 SD.
Regarding `O=C(C[S+]([O-])Cc1ccco1)NC/C=C\COc1cc(CN2CCCCC2)ccn1` (centres unmarked) [Lafutidine], the “Average Incidence SD Away” value under setting [1] came out at 1.619 SD.
For `CC(C(=O)[O-])c1cccc(Oc2ccccc2)c1.CC(C(=O)[O-])c1cccc(Oc2ccccc2)c1.[Ca+2]` (centres unmarked) [Fenoprofen calcium], the “Average Incidence SD Away” value under setting [1] worked out at 3.368 SD.
The same measure, in the same setting: for `Nc1nc(Cl)nc2c1ncn2[C@H]1C[C@H](O)[C@@H](CO)O1` [Cladribine] the value was 1.604 SD.
`Nc1nc2[nH]cc(CCc3ccc(C(=O)N[C@@H](CCC(=O)O)C(=O)O)cc3)c2c(=O)[nH]1` [Pemetrexed]: under setting [1], the “Average Incidence SD Away” value is 2.083 SD and the “Average Length SD Away” value was determined as 2.765 SD.
Take `COc1ccc2cccc(N3CCN(CCNC(=O)c4ccc(F)cc4)CC3)c2c1.Cl` [S 14506 hydrochloride]: the “Average Length SD Away” value under setting [1] is listed as 1.54 SD.
In the case of `C[C@@H]1CC(=O)NN=C1c1ccc(NN=C(C#N)C#N)cc1` [Levosimendan], the “Average Incidence SD Away” value under setting [1] worked out at 1.52 SD.
On the same count and under the same terms, under Gabexate mesylate stands 1.87 SD.
On to `O=C(CCCCCCC(=O)Nc1ccccc1)NO` [Vorinostat], for which the “Average Length SD Away” value under setting [1] amounted to 3.283 SD.
In the case of `O=NN(CCCl)C(=O)NC1CCCCC1` [Lomustine (CeeNU), Lomustine], the “Average Incidence SD Away” value under setting [1] is recorded as 2.228 SD.
On to `CC[n+]1c(-c2ccccc2)c2cc(N)ccc2c2ccc(N)cc21` [HOMIDIUM BROMIDE], for which, under setting [1], the “Average Length SD Away” value is listed as 1.694 SD.
On the same count and under the same terms, under `C=C[C@H]1C[N@@]2CC[C@H]1C[C@H]2[C@H](O)c1ccnc2ccc(OC)cc12` [QUININE SULFATE] stands 1.802 SD.
For `CC[C@]1(O)C[C@@H]2CN(CCc3c([nH]c4ccccc34)[C@@](C(=O)OC)(c3cc4c(cc3OC)N(C)[C@H]3[C@@](O)(C(=O)OC)[C@H](OC(C)=O)[C@]5(CC)C=CCN6CC[C@]43[C@@H]65)C2)C1` [Vinblastine], under setting [1], the “Average Incidence SD Away” value is on record as 3.124 SD and the “Average Length SD Away” value is reported as 1.771 SD.
Take `Nc1nc(N)nc(-c2cc(Cl)ccc2Cl)n1` [Irsogladine]: the “Average Incidence SD Away” value under setting [1] stood at 1.543 SD.
With `N#C/C(=C\c1ccc(O)c(O)c1)C(=O)Nc1ccccc1` [AG 494], the “Average Length SD Away” value under setting [1] is given as 1.575 SD.
On to `Cl.O=C1NCCc2[nH]c(-c3ccncc3)cc21` [PHA 767491 hydrochloride], for which the “Average Length SD Away” value under setting [1] is recorded as 1.724 SD.
Turning to `O=C[C@H](O)[C@@H](O)[C@H](O)[C@H](O)CO` [Dextrose (D-glucose), D-glucose], the “Average Incidence SD Away” value under setting [1] was determined as 1.518 SD.
